{"source": "patent US20040062800A1", "about": "“Sustained release pharmaceutical dosage forms with minimized ph dependent dissolution profiles” (priority 2000, published 2004)", "assay": "physchem", "assay_type": "physicochemical", "settings": "25 °C", "text": "Below pH 3, the solubility increased as the pH decreased which is consistent with formation of a more soluble protonated form. […] Above pH 4, the solubility was independent of pH and remained constant (ca. 1.2 mcg/mL) up to pH 8. Above pH 8, the solubility increased with increasing pH which is due to the ionization of the quinazoline moiety.", "note": "Where a name gives a salt, the structure may show the parent alone."}
{"smiles": "O=C1CN2Cc3c(ccc(Cl)c3Cl)N=C2N1", "note": "[anagrelide HCl]", "values": [{"measurement": "solubility", "setting": "aqueous buffer", "value": "~1.2", "unit": "µg/mL"}, {"measurement": "solubility", "setting": "pH 0.96, simulated gastric fluid", "value": 236, "unit": "µg/mL"}, {"measurement": "solubility", "setting": "pH 11.4, aqueous buffer", "value": 992, "unit": "µg/mL"}]}
